Experimental data published in patent US8349889B2, “Skin-care preparations containing mupirocin and betamethasone dipropionate” (Laboratorios Dermatologicos Darier, S.A. DE C.V., priority 2005, dated 2013).
Several values for one entry are separate records, joined by “and”; a condition that tells them apart may be missing. Equal values may be shown once.

Assays:
[1] = Active evaluation (USP23 NF/21) of white petrolatum ointment base formula, three samples; assay type: physicochemical; conditions: Samples 1-3 from different parts of the vessel, specification 90.0 to 110.0%
Description: As for the ointment base determination, an ointment base having the following components was tested: white petrolatum (carrier), NF 85 mineral oil (texture and appearance modifier), PEG 40 hydrogenated castor oil (solvent), glycerin (moistener), butyl hydroxy toluene (antioxidant), methyl paraben and propyl paraben (preservatives), mupirocin and betamethasone dipropionate (active ingredients). The manufacture process was the following: In an appropriate size vessel the white petrolatum, mineral oil and glycerin were placed, this mixture was heated up to a temperature of 75° C. and then the butyl hydroxy toluene with the parabens was dissolved; separately in other suitable size vessel the PEG 40 hydrogenated castor oil was placed, heated up to a 60° C. temperature and mupirocin and betamethasone dipropionate were solved therein; when both mixtures were at 60° C. they were mixed and the final product was obtained after lowering the temperature with constant mixing until reaching ambient temperature.
(§1) Once the product was obtained three samples were analyzed, collected from different parts of the vessel containing the product, by Active Evaluation techniques reported for each of them in the individual monographs included in USP23 NF/21.

[2] = Incompatibility tests, active evaluation immediately after preparation; assay type: physicochemical; design: unit not given here; conditions: for Active evaluation, Test 1: actives + PEG 40 hydrogenated castor oil, analysed immediately after preparation; for Active evaluation, Test 2: as Test 1 + butyl hydroxy toluene; for Active evaluation, Test 3: as Test 2 + propyl paraben; for Active evaluation, Test 4: as Test 3 + methyl paraben; for Active evaluation, Test 5: as Test 4 + glycerin; for Active evaluation, Test 6: as Test 5 + mineral oil; for Active evaluation, Test 7: as Test 6 + white petrolatum
Description: In order to test the possible incompatibility of mupirocin with one of the excipients the following tests reported in Table No. 4 were performed and the results are the following: [table]

[3] = Active evaluation (USP23 NF/21) of polyethylene glycol based formula, three samples; assay type: physicochemical; conditions: formula with PEG 40 hydrogenated castor oil, polyethylene glycol 600, PEG 150 distearate, methyl paraben; Samples 1-3; specification 90.0 to 110.0%
Description: Taking the experience that mupirocin and betamethasone dipropionate are soluble at 60° C. in PEG 40 hydrogenated castor oil and in polyethylene glycol 600 (according to Table No. 2), a formulation having the following ingredients is proposed: mupirocin and betamethasone dipropionate (active ingredients), PEG 40 hydrogenated castor oil (cosolvent), polyethylene glycol 600 (balance excipient or carrier), PEG 150 distearate (thickener) and methyl paraben (preservative). The manufacturing process was the following: In an appropriate size vessel the polyethylene glycol 600 and PEG 40 hydrogenated castor oil were placed, this mixture was heated up to a temperature of 70° C. and then the methyl paraben, mupirocin and betamethasone dipropionate were dissolved; once all the above ingredients were dissolved, the temperature was lowered with constant mixing until reaching 60° C.; it was then added the PEG 150 distearate and continued mixing until the mixture was homogenous; the final product was obtained after lowering the temperature with constant mixing until reaching ambient temperature.
as §1

[4] = Simple incorporation of the active in white petrolatum at 60° C.; assay type: physicochemical; conditions: incorporated in white petrolatum at 60° C.; cream color gummy hard precipitate forms
Description: According to the results it can be concluded that mupirocin in the presence of white petrolatum undergoes a possible chemical degrading. It then followed a simple incorporation of the active in the white petrolatum at a temperature of 60° C. and it was seen that immediately a cream color precipitate forms having a gummy appearance and hard. […] Therefore, this ointment base with mupirocin is discarded.

[5] = Bactericide action tests; conditions: at the concentrations obtained in a 2% topical formulation

SMILES | Evaluation Results [1] | Active evaluation, Test 1 [2] | Active evaluation, Test 2 [2] | Active evaluation, Test 3 [2] | Active evaluation, Test 4 [2] | Active evaluation, Test 5 [2] | Active evaluation, Test 6 [2] | Active evaluation, Test 7 [2] | Evaluation Results [3] | Compatibility with white petrolatum [4] | bactericide action [5]
CCC(=O)OCC(=O)[C@@]1(OC(=O)CC)[C@@H](C)C[C@H]2[C@@H]3CCC4=CC(=O)C=C[C@]4(C)[C@@]3(F)[C@@H](O)C[C@@]21C [Betamethasone dipropionate] | 100.6% and 100.2% | 100.2 | 100.3 | 100.2 | 99.8 | 100.2 | 100.4 | 99.3 | 99.8% and 100.3% and 100.1% |  | 
C/C(=C\C(=O)OCCCCCCCCC(=O)O)C[C@@H]1OC[C@H](C[C@@H]2O[C@H]2[C@@H](C)[C@H](C)O)[C@@H](O)[C@H]1O [Mupirocin] | 70.5% and 71.2% and 70.7% | 98.8 | 99.3 | 98.7 | 98.9 | 99.0 | 98.8 | 69.8 | 98.7% and 99.1% and 99.4% | incompatible with white petrolatum | has bactericide action
